This is an account of results in patent US20050256168A1, “Compositions for oral administration for the treatment of interferon-responsive disorders” (priority 2004, published 2005).

Entries after “also recorded” stand apart in the source; their conditions may differ. Read-outs that look alike come from different tables or passages of the source. Where only a bound is given, the exact number is not on record here.

Series [1] deals with bovine viral diarrhea virus (BVDV). Put plainly: BVDV antiviral activity in tissue cultures of infected MDBK cells. The class given is cell-based. The text has this:
The IC50 for 6-O-nonyl-deoxynojirimycin, for example, bovine viral diarrhea virus (BVDV), in tissue cultures of BVDV infected MDBK cells, a surrogate of hepatitis C virus is 3 micro-molar.

The test system of a further series is glucosidase. Put plainly: Glucosidase inhibitory activity. The class given is biochemical.
The test system of a further series is 2′,5′ OAS gene. Put plainly: Induction of 2′,5′ OAS genes in Hep G2 cells by R/T PCR and Southern blot-R/T PCR. The following applies: 16 hours; for induction of medium (p69) and small (p40) 2′,5′ OAS genes: R/T PCR. On the procedure:
Hep G2 cells were treated with the indicated doses of A) alpha galactosyl ceramide or with B) N-9-oxadecyl-6-methyl-DGJ (b) for 16 hours and the induction of the medium (p69) and small (p40) isoforms of the […] OAS gene determined by R/T PCR. For each set, actin levels were also monitored as a control for loading. […] C) Southern blot- R/T PCR of RNA from Hep G2 cells treated with the indicated concentration of N-9-oxadecyl-6-methyl-DGJ or with 10^3 iU/mL interferon alpha (2a/2b) for 16 hours. Briefly, limited PCR was performed as described for 5, 10, 15 cycles and the PCR products transferred to nylon membrane before hybridization with a 1377 bp cDNA probe from nucleotides 1 to 1377 from the published OAS-40/46 gene (accession #X02874). Actin controls were performed in the same manner.
The ability of alpha galactosyl ceramide and N-9-oxadecyl-6-methyl-DGJ to directly induce the innate host defense pathway in tissue culture was determined by analysis of the induction of the 2′-5′ oligoadenylate synthetase genes (2′,5′ OAS) using an RT PCR based methodology.
Briefly, Hep G2 cells were incubated with either alpha galactose ceramide or the synthetic glycolipids shown in FIG. 1 for the desired length of time and the total RNA harvested using Tri-reagent as per manufactures directions (Gibco-BRL, Rockville, Md., USA). RNA samples were further purified using the Ambion DNA™ free kit, (Ambion, Inc., Austin, Tex., USA) before reverse transcriptase (RT) PCR with the PCR conditions and primers exactly as reported in the literature. PCR was performed in the absence of (RT) for 50 cycles to ensure no DNA contamination. Dilution experiments were used to ensure that PCR was within the linear range of the assay. Southern blot-R/T PCR of RNA from Hep G2 cells treated with the indicated concentration of N-9-oxadecyl-6-methyl-DGJ or with interferon alpha (2a/2b) for 16 hours was also performed to allow for quantification of induction. Briefly, limited PCR was performed as described above for 5, 10, 15 cycles and the PCR products transferred to nylon membrane. Hybridization was carried out using a 1377 bp cDNA probe from nucleotides I to 1377 from the published OAS40/46 gene (accession #X02874). OAS-40/46 specific bands were identified and quantified by phosphor image analysis [Bio-Rad, Hercules, Calif.].

In series [2] the test system is HBV. The following applies: from Antimicrob Agents Chemother. 2002; 46(12): 4004-4008; cited from earlier work.
The subject of series [3] is HBV. The experiment in a line: Secretion of enveloped HBV DNA into culture medium of Hep G2 2.2.15 cells. The format is cell-based, hepatitis B virus. Conditions: for IC50: Hep G2 2.2.15 cells, 3 days, read-out: IC50 (anti-viral, HBV); for secretion of enveloped HBV (HBV rc DNA in culture medium): Hep G2 2.2.15, 3 days, alpha galactosyl ceramide 0.1-100 nM, N-9-oxadecyl-6-methyl-DGJ 0.8-25 μM, interferon alpha 10^3 iU/mL.

Series [4] concerns HBsAg, core antigen, HBV polymerase. Put plainly: Effect on HBsAg and core antigen production or secretion and HBV polymerase activity. The class given is cell-based, hepatitis B virus. Conditions: at concentrations that were highly anti-viral. The text has this: Both alpha galactosyl ceramide and the “alkovirs”, described herein, have anti-hepatitis B virus activity (FIG. 2).
This indicates both that the compounds were both well tolerated at these concentrations and that the anti-viral activity cannot be explained by a direct effect upon the synthesis of viral products but rather through the activation of a cellular defense mechanism.

A further series has as its system HCV replicon. The experiment in a line: HCV subgenomic replicon RNA level in 9-13 cells (Northern blot). The format is cell-based, hepatitis C virus. The following applies: 48 hours.
The next series deals with Hep G2 2.2.15 cells. Put plainly: MTT toxicity test. The format is cell-based. The procedure: A) Alpha galactosyl ceramide inhibits HBV in vitro. […] Briefly, Hep G2 2.2.15 cells, which secrete hepatitis B virus, were either left untreated or treated with 10^3 iU/mL of interferon alpha (2a/2b) or 0.1 nM to 100 nM of alpha galactosyl ceramide for three days and the amount of HBV specific DNA detected in the culture medium using a method which discriminates between enveloped and non enveloped viral particles. The HBV rc DNA, which decreases with both interferon and alpha galactose ceramide treatment is indicated. […] Hep G2 2.2.15 cells were left untreated or treated with varying doses of the synthetic glycolipid N-9-oxadecyl-6-methyl-DGJ (0.8 μM to 25 μM) for 3 days and the level of HBV secreted into the culture medium detected as before. […] The HBV rc DNA, which decreases with N-9-oxadecyl-6-methyl-DGJ, interferon, and alpha galactosyl ceramide treatment is indicated. C-D) Cells treated with alpha-galactosyl ceramide or the synthetic glycolipid N-9-oxadecyl-6-methyl-DGJ were tested for viability using the standard MTT toxicity test. For panel C: X-axis: From left to right: Untreated cells; Alpha galactosyl ceramide at 10 μM, 5 μM, 2.5 μM, 1 μM, 0.5 μM, 0.1 μM. Y-axis, percent viability as compared to untreated group. For Panel D: X-axis: From left to right: Untreated cells; N-9-oxadecyl-6-methyl-DGJ at 2000 μM, 800 μM. 400 μM, 200 μM, 100 μM, 10 μm. Y-axis, percent viability as compared to untreated group.
Toxicity was determined by mitochondrial toxicity testing (MTT) of cells that had been exposed to compounds in a manner similar to the anti-viral assays except cells were treated in 24 well trays. Briefly, Hep G2 2.2.15 cells were treated with drug as indicated in the figure legends for 3 days, the media removed and replaced with 100 μl of a 10 mg/ml solution of tetrazolium bromide [[3-[4,5-dimethylthiazol-2-yl]-2,5-diphenyltetrazolium bromide, Sigma Chemicals] for one hour at 37° C. Addition of 100-200 μl of dimethylsulfoxide (DMSO) led to color development. Supernatants were removed and placed in a 96 well tray for analysis. OD values were read at 590 nm.
A general note: Tetrazolium dyes change colour on reduction, which living cells bring about.

Experimental for HCV replicon: A) Total RNA was isolated, resolved through agarose gels and hybridized to a radioactive probe specific for HCV NS5B. After washing, the blot was and re-probed with radioactive beta-actin specific sequences to control for loading of lanes.
Beta-actin protein and RNA were used as controls in these experiments.
9-13 cells were seeded in T25 flask at 3×10^6 cells. […] Northern blot analysis was done to analyze HCV replicon RNA level.
Briefly, 2 μg total RNA was electrophoresed through a 1.0% agarose gel containing 2.2 M formaldehyde, transferred to a nylon membrane and immobilized by Lw cross-linking (Stratagene). Hybridization was carried out using an alpha-[^32P]CTP-labeled probe with random primers on a 2 kb NS5B DNA fragment in a quick hybridization solution (Amersham Bioscience, Piscataway, N.J.) for 16 h at 65° C. The membranes were washed once in 2×SSC/0.1% SDS for 30 min at room temperature and twice in 0.1×SSC/0.1% SDS for 30 min at 65° C.

Usually IC50 stands for the concentration that inhibits the measured activity by half. Consider `CCCCCCCCCOCC1NCC(O)C(O)C1O` (centres unmarked) [6-O-nonyl-deoxynojirimycin], for which the IC50 in series [1] (BVDV infected MDBK cells, surrogate of hepatitis C virus, read-out: IC50 against BVDV) amounted to 3 µM. Besides, the antiviral activity entry in series [1] (virus not named at b41, BVDV assumed) is “retains antiviral activity”. Further, in the series with glucosidase, the glucosidase inhibitory activity result is recorded as “no glucosidase inhibitory activity”.

As to `CCOCCCCCCN1CC(O)C(O)C(O)C1C(C)O` (centres unmarked) [N-7-oxanonyl-6-methyl-DGJ], the “induction of medium (p69) and small (p40) 2′,5′ OAS genes” value (from here on “induction of medium (p69) and small”) with 2′,5′ OAS gene is “did not detectably induce 2′,5′ OAS gene expression”. Further, the “anti-viral activity against hepatitis B virus” value in the series with HBV [2] was “no anti-viral activity against hepatitis B virus; also recorded: limited anti viral activity against HBV”.

What is called CC50 is the concentration giving 50% cytotoxicity. For `COCCCCCCCCN1CC(O)C(O)C(O)C1C(C)O` (centres unmarked) [N-9-oxadecyl-6-methyl-DGJ], in the series with HBV [3], the IC50 was approximately 1 µM and the “secretion of enveloped HBV (HBV rc DNA in culture medium)” value (“secretion of enveloped HBV” for short) is recorded as “exerted anti-viral activity at varying doses”. In addition, the “effect upon HBsAg production or secretion, core antigen production or secretion or HBV polymerase activity” value in series [4] was “Neither Alpha Galactosyl Ceramide or N-9-oxadecyl-6-methyl-DGJ had any Detectable Effect”. The “fold induction of the 2′,5′ OAS gene” value with 2′,5′ OAS gene (70 μM, Southern blot-R/T PCR) is on record as 20 fold. For the same compound, the “induction of medium (p69) and small” value in the series with 2′,5′ OAS gene was “induced only the small (p40) 2′,5′ OAS gene expression”. Moreover, the “fold increase in 2′,5′ OAS gene expression” value in the series with 2′,5′ OAS gene (lower concentrations (below 70 μM), dose dependent) is 2-15 fold. The IC50 in the series with HCV replicon (9-13 cells, three separate experiments, read-out: IC50 for reduction of HCV RNA) turned out to be 1.5 µM. Also, in the series with Hep G2 2.2.15 cells, the CC50 is more than 2000 µM and the toxicity entry is “little or no toxicity”.

`CCCCCCCCCCCCCCCCCCCCCCCCCC(=O)N[C@@H](CO[C@H]1O[C@H](CO)[C@H](O)[C@H](O)[C@H]1O)[C@H](O)[C@H](O)CCCCCCCCCCCCCC` [alpha galactosyl ceramide, reference compound]: in the series on HBV [3], the IC50 was approximately 0.0004 µM and the “secretion of enveloped HBV” value is listed as “inhibited the secretion of enveloped HBV”. In addition, the “effect upon HBsAg production or secretion, core antigen production or secretion or HBV polymerase activity” value in series [4] was “Neither Alpha Galactosyl Ceramide or N-9-oxadecyl-6-methyl-DGJ had any Detectable Effect”. Also, the “induction of medium (p69) and small” value with 2′,5′ OAS gene was “induced only the small (p40) 2′,5′ OAS gene expression”. The toxicity entry in the series on Hep G2 2.2.15 cells (FIG. 2-3) is “little or no toxicity”. For the same compound, the CC50 in the series on Hep G2 2.2.15 cells (Hep G2 2.2.15 cells, 3 days, MTT, read-out: CC50) stood at 8 µM.

Consider interferon alpha, for which the “secretion of enveloped HBV” value in the series with HBV [3] was “inhibits secretion effectively”. For the same compound, the “induction of medium (p69) and small” value in the series with 2′,5′ OAS gene is “potent inducer of both the medium (p69) and small (p40) 2′,5′ OAS genes”. The “replication of HCV RNA in 9-13 cells” value with HCV replicon is “sensitive to interferon alpha”.
